# Reference: ChEMBL document CHEMBL3507680, “University of Dundee, Gates Library screen for HepG2 cell viability”
# Assay: Human HepG2 cell viability assay in 384 well format
# Format: toxicity, cell-based
# Design: dose 125 nL, time 70.5 hour; cytotoxicity at 70.5 h: concentration not given beside the values
# Settings: HepG2 cells, read-out: Inhibition
row,Structure (SMILES),cytotoxicity at 70.5 h [%]
1,CN(C)CCN1CC[C@H]2[C@@H]1CCN2Cc1ccc2c(c1)OCO2,-4.2
2,Cc1nc(C)n(CC2CCCN(CC(=O)Nc3nnc(C)s3)C2)n1 (stereo not drawn),17.5
3,Cc1csc([C@@H]2C[C@@H]3CCN(C(=O)c4cnccn4)C[C@H]3O2)n1,-4.76
4,Cc1cc(C)c(CNC(=O)N(C)Cc2ccoc2)c(=O)[nH]1,-2.92
5,O=C(c1cccnc1O)N1CCN(Cc2ccccc2F)CC1,17.4
6,COc1ccc(CC(=O)N2CCC(c3nncn3C)CC2)cc1F,-10.5
7,CCCn1nc(C)c(CN(CCN(C)C)Cc2ccccn2)c1C,12.9
8,CN(CCOCC1CC1)C(=O)Nc1ccc([S+](C)[O-])c(F)c1 (stereo not drawn),21.5
9,O=C(c1ccco1)N1CCc2ncnc(Oc3cccnc3)c2CC1,-0.464
10,CN(C(=O)C1CCCC1)C(c1cccc(F)c1)c1ccccn1 (stereo not drawn),14.2
11,O=C(c1ccno1)N1CCOC[C@H](Oc2ccccc2)C1,-3.41
12,CC(OCc1ccccc1)C(=O)NC1CCN(CC(N)=O)CC1 (stereo not drawn),-6.55
13,COCC(=O)N1CCC2(CCN(Cc3ccc(C)cc3)CC2)CC1,-11.5
14,COCCN(Cc1ccco1)Cc1nc(-c2ccsc2)no1,11.1
15,CN(Cc1cncnc1)[C@@H]1CN(C(=O)c2ccco2)[C@@H]2CCCO[C@H]12,-3.82
16,O=C(CCc1nc2cccnc2[nH]1)NCc1ccc2c(c1)OCO2,-9.32
17,CN(C)Cc1cc(C2CCN(C(=O)C3CCCNC3)CC2)nn1C (stereo not drawn),-5.29
18,CC1CCN(C(=O)c2occc2COc2cccc(C#N)c2)CC1,8.42
19,CC(C)c1cc(NC(=O)c2cccnc2)[nH]n1,-10.3
20,Cn1cccc1C(=O)N1CCc2ccc(=O)n(C)c2CC1,-6.17
21,O=C(CNC(=O)Nc1cccc(-c2nccs2)c1)NCCO,-2.39
22,CCn1ccnc1CN1CCCN(C(=O)c2ccnc(C)n2)CC1,14.4
23,CNCC(=O)NC1CC(C)(C)Cc2nc(C(C)(C)C)ncc21 (stereo not drawn),-18.9

row,Structure (SMILES),cytotoxicity at 70.5 h [%]
1,COCCN(Cc1sccc1C)C(=O)c1c(O)cccc1F,-5.43
2,Cc1cc(C)c(CNC(=O)N2CCCC2C(N)=O)c(=O)[nH]1 (stereo not drawn),-4.33
3,CC1CCC(NCCNC(=O)c2cccs2)CC1 (stereo not drawn),-7.09
4,CN(Cc1csc(-c2ccccc2)n1)C(=O)CCn1ccccc1=O,-0.921
5,COc1ccc(N2CCN(C(=O)c3cc(=O)c(OC)c[nH]3)CC2)cc1,-6.09
6,O=C([C@H]1COC[C@H]2CN(C3CCCC3)C[C@H]21)N1CCCCO1,-12.7
7,CC(Cn1cccn1)NCc1nc(-c2cccnc2)no1 (stereo not drawn),-3.96
8,Cc1[nH]ncc1CCCNC(=O)Nc1ccccc1,14.5
9,CCOc1ccc(OCc2nccc(-c3cc(C(=O)O)ccn3)n2)cc1,16
10,CCN1CC2(CC1=O)CN(C(=O)c1ccco1)CCN(C(=O)N(C)C)C2 (stereo not drawn),-5.37
11,CCc1nnc(CNC(=O)CCC2CCCCN2C)s1 (stereo not drawn),6.71
12,O=C(COc1ccc(-n2cccn2)nn1)N1CCCC1,-2.51
13,O=C(C1CC(F)(F)C1)N1CC[C@H]2OCC[C@@]2(COCC2CC2)C1,-1.76
14,Cc1ccsc1C(CNC(=O)c1cc(=O)c2ccccc2[nH]1)N(C)C (stereo not drawn),-9.06
15,CN1C(Cn2cccn2)C[C@@H]2CN(Cc3nccs3)CC[C@@H]21 (stereo partly drawn),-5.16
16,CC(C)C(=O)N1C[C@H]2CCCN[C@H]2C1,-5.18
17,COc1ccccc1Oc1ncccc1CNC(=O)C(C)N1CCCC1 (stereo not drawn),-1.98
18,Cc1oc(C(C)C)cc1C(=O)N1CCN(c2cnn(C)c(=O)c2)CC1,-3.48
19,Cc1ncsc1C(=O)N(Cc1cccs1)C1CC1,-16.1
20,COc1ccc(NC(=O)c2ccc(CN3CC[C@H](O)C3)cc2)c(OC)n1,-7.69
21,Cc1nc(CN2CCCC(CCc3ccccc3F)C2)c[nH]1 (stereo not drawn),1.04
22,CO[C@@H]1CC[C@H]2[C@H]1OCCN2S(=O)(=O)c1cn(C)cn1,0.221
23,COC(=O)CCNC(=O)c1nc(NS(=O)(=O)c2ccccc2)sc1C,-23

row,Structure (SMILES),cytotoxicity at 70.5 h [%]
1,Cc1cccc(C(=O)N2CCC(Cc3cnc4[nH]ccc4c3)CC2)n1,-7.84
2,O=c1n(CC2COCCO2)nc(CC2CCNCC2)n1-c1ccccc1 (stereo not drawn),-3.66
3,Cc1ccc(SCCN(C)C(=O)c2cn(CCN)nn2)cc1,16.5
4,Cc1ccc(S(=O)(=O)NCC2COCc3c(C)nnn3C2)cc1F (stereo not drawn),7.81
5,CN(c1ccc(C(C)(C)C)cc1)S(=O)(=O)c1cc(C(=O)O)cs1,-10.9
6,COc1ccc(-c2c(C)nn3c(=N)c(C#N)n[nH]c23)cc1,-12.3
7,CN1C[C@@H](F)[C@@H](OCc2nc3ccccc3n2C)C1,-2.45
8,Cc1cc(C2CCCN2C(=O)Cn2c(C)cc(=O)c3ccccc32)on1 (stereo not drawn),-6.42
9,CN(CCO)CC1COCCN1C(=O)C1(c2cccs2)CCCC1 (stereo not drawn),-1
10,Cc1nc(C2CN(Cc3ccccc3C)CCO2)no1 (stereo not drawn),-11
11,Cc1nc2cc(O)nn2c(C)c1CCC(=O)NCCc1ccccc1,10.3
12,CCc1[nH]c2ccc(CNC(=O)Cc3c(C)nc(N)nc3C)cc2c1C,1.33
13,CC(C)[C@H](NS(C)(=O)=O)C(=O)NCc1cc(-c2ccccc2)nn1C,7.09
14,COC[C@@H]1CCC[C@@]12CN(C(=O)N(C)C)CCO2,0.626
15,Cc1ncc(C(=O)NCCNC(=O)Cc2cccc(F)c2)s1,-6.72
16,CS(=O)(=O)CC(=O)N1C[C@H]2CCC[C@@]2(COc2ccccn2)C1,12.7
17,Cc1nn(C)c(C)c1OCC(=O)N1CCC(O)(C(F)(F)F)CC1,-6.23
18,CCN1CCN(C(=O)NCc2cccnc2-n2cccn2)CC1,10.5
19,COc1cc(C2SCC(=O)Nc3[nH]ncc32)cc2c1OCO2 (stereo not drawn),-10.8
20,CN(Cc1ccc(F)cc1)Cc1cc2c(cc1Br)OCCO2,-8.04
21,CCN(Cc1ccoc1)C(=O)NC1CCN(CC2CC2)C1 (stereo not drawn),-5.67
22,Cc1ccc(C(=O)NCCNCC2CNc3ccnn3C2)cc1 (stereo not drawn),-0.325
23,NC(=O)CSCCC(=O)NCC1CC1,3.32

row,Structure (SMILES),cytotoxicity at 70.5 h [%]
1,COC[C@@]12CCO[C@@H]1CCN(C(=O)COc1ccccc1OC)C2,-11.3
2,CC1c2ncc(CN3CCN(C)CC3)n2CCN1Cc1cccnc1 (stereo not drawn),-15.8
3,CN(Cc1nnc2n1CCC2)C(=O)CCc1ccc2c(c1)OCO2,-7.61
4,CN(C)CC1CCN(Cc2nccn2CC(F)(F)F)CC1,-0.976
5,CN(Cc1ccc2c(c1)OCO2)C(=O)c1ccc(C2CCCNC2)cc1 (stereo not drawn),-6.12
6,Fc1cc(Cl)cnc1N1CCCC(c2nccn2Cc2ccccn2)C1 (stereo not drawn),10.1
7,c1ccn(Cc2noc3c2CN(Cc2ccsc2)CC3)c1,-6.24
8,CS(=O)(=O)CCOCCNc1ccc(C(F)(F)F)cc1C#N,-3.49
9,CCc1ccc(-c2cn3c(C(=O)NCC(C)C(=O)NC)csc3n2)cc1 (stereo not drawn),-1.36
10,CCCN1CCc2nc(SCc3c(C)cc(C)cc3C)[nH]c(=O)c2C1,4.68
11,Cc1nc(CN2CCCC(N(C)Cc3nnc(C4CC4)o3)C2)no1 (stereo not drawn),13.8
12,Cn1cccc1C(=O)N1CCC2(CC1)CCN2S(C)(=O)=O,-4.8
13,NC(=O)C1CCN(S(=O)(=O)c2cnn(-c3ccccc3)c2)CC1,-4.05
14,COc1cc(Nc2c(C#N)c(=O)n(C)c(=O)n2C)cc(OC)c1,-6.16
15,COc1c(CNC2(c3ccc(Cl)cc3)CCC2)c(C)nn1C,5.64
16,COCCn1c2c(ccc1=O)CCN(C(=O)CC1CC1)CC2,-2.25
17,COc1ccc(N2CCCN(CC(=O)N3CCNC(=O)C3)CC2)cc1,-8.51
18,COCCN1CCN(CCCS(=O)(=O)c2ccccc2)CC1C (stereo not drawn),0.059
19,O=C(c1cc(F)ccc1F)C1CCN(C(=O)c2ccc(=O)[nH]n2)CC1,-9.24
20,COc1ccc2[nH]c(CNc3cc(C4CCNCC4)nc(C)n3)cc2c1,-3.5
21,Cc1nnc(Nc2cccc(C3CCN(Cc4ncc[nH]4)CC3)n2)s1,18.8
22,CN(C)CCN1CCCC12CCCN(Cc1ccoc1)C2 (stereo not drawn),13.7
23,CCc1[nH]n(C)c(=N)c1-c1ccc2c(c1)OCO2,-6.78

row,Structure (SMILES),cytotoxicity at 70.5 h [%]
1,COc1ccc(CN(C)C(=O)NCc2c(C)cc(C)[nH]c2=O)cc1,-4.65
2,CC(C)(C)n1cc(C(=O)N2CCN(Cc3cccnc3)CC2)cn1,-7.69
3,Cc1nc(-c2ccccc2)sc1CNC(=O)c1ccc(=O)n(C)c1,-3.22
4,Cc1ccc(C#N)c(N2CCCC(c3nccn3Cc3cscn3)C2)n1 (stereo not drawn),-3.22
5,CCC(C#N)NC(=O)c1ccc(Oc2cccnc2)cc1 (stereo not drawn),-8.45
6,CC(NC(=O)NCCCn1cccn1)c1ccccn1 (stereo not drawn),-5.57
7,CC(C)NC(=O)c1nc2c(s1)CCCN2C(C)C,7.18
8,OC1(Cn2ccc3ccncc32)CCN(Cc2ccccn2)CC1,-2.48
9,O=S(=O)(C1CC1)N1CCc2ncnc(-c3ccncc3)c2CC1,-0.987
10,CC(C)n1cnnc1CN(C)Cc1ccc(CO)o1,-22.8
11,CCn1cnnc1CNC(=O)N1CCC(CN2CCCCCC2)CC1,-7.73
12,CCc1nccn1-c1nccnc1C1CCCN(C(=O)COC)C1 (stereo not drawn),-6.06
13,O=C(c1cnccn1)N1CCCC2(CCN(c3ncccn3)C2)C1 (stereo not drawn),4.46
14,Cc1nc(CN2C(=O)COC3(CCN(C(N)=O)CC3)C2C)cs1 (stereo not drawn),3.95
15,CCCn1ncc(CN(Cc2ccsc2)Cc2ccco2)c1C,-6
16,COc1cccc([C@@H]2CCN(Cc3[nH]nc(C)c3Cl)C[C@H]2O)c1,-22.1
17,CCCc1cc(C(=O)N(C)Cc2ccc(OC)c3ncccc23)n(C)n1,2
18,Cc1ccccc1N1CC(c2nnc(N)s2)CC1=O (stereo not drawn),3.37
19,CSc1ccc(NC(=O)Cc2cccc(O)c2)nc1,-20.9
20,Cc1ccccc1C(=O)NC1CCN(Cc2ncc(C(C)(C)C)o2)CC1,-0.562
21,c1ccc(CN2CCOC3(CCN(c4ncccn4)CC3)C2)nc1,12
